Results taken from ChEMBL document CHEMBL4373664, “Importance of lipophilicity for potent anti-herpes simplex virus-1 activity of α-hydroxytropolones” (Medchemcomm, 2019).
Calls of active or inactive are those of the source. The calls are words filed in the database; no cut-off is given here.

Key:
Human alphaherpesvirus 1 [1] = experiment: Antiviral activity against HSV-1 infected in African green monkey Vero cells assessed as suppression of viral replication at 1 uM after 24 hrs by plaque reduction assay based phase contrast microscopy; assay type: functional
Human alphaherpesvirus 1 [2] = experiment: Antiviral activity against HSV-1 infected in African green monkey Vero cells assessed as suppression of viral replication at 0.2 uM after 24 hrs by plaque reduction assay based phase contrast microscopy; assay type: functional
Human alphaherpesvirus 1 [3] = experiment: Antiviral activity against HSV-1 infected in African green monkey Vero cells assessed as suppression of viral replication at 5 uM after 24 hrs by plaque reduction assay based phase contrast microscopy; assay type: functional
[4] = Inhibition of NTS in HSV-1 infected in African green monkey Vero cells assessed as suppression of viral replication by measuring viral titer after 24 hrs by plaque reduction assay based phase contrast microscopy; assay type: cell-based; details: Human alphaherpesvirus 1, Vero
[5] = Cytotoxicity against African green monkey Vero cells incubated for 72 hrs by MTS assay; assay type: cell-based; details: chlorocebus sabaeus
[6] = Cytotoxicity against African green monkey Vero cells incubated for 24 hrs by MTT assay; assay type: cell-based; details: chlorocebus sabaeus
[7] = Inhibition of NTS in HSV-2 infected in African green monkey Vero cells assessed as suppression of viral replication by measuring viral titer after 24 hrs by plaque reduction assay based phase contrast microscopy; assay type: cell-based; details: Human alphaherpesvirus 2, Vero
Human alphaherpesvirus 1 [8] = experiment: Antiviral activity against HSV-1 infected in African green monkey Vero cells assessed as suppression of viral replication at 1 uM after 24 hrs by plaque reduction assay based phase contrast microscopy relative to control; assay type: functional
Human alphaherpesvirus 1 [9] = experiment: Antiviral activity against HSV-1 infected in African green monkey Vero cells assessed as suppression of viral replication after 24 hrs by plaque reduction assay based phase contrast microscopy; assay type: functional, organism-based; details: Human alphaherpesvirus 1, Vero
[10] = Therapeutic index, ratio of CC50 for African green monkey Vero cells to EC50 for HSV-1 infected in African green monkey Vero cells; assay type: toxicity; details: read-out: Ratio CC50/EC50

| Compound | log(activity) (Human alphaherpesvirus 1 [1]) | log(activity) (Human alphaherpesvirus 1 [2]) | log(activity) (Human alphaherpesvirus 1 [3]) | EC50 [4] | CC50 at 72 h [5] | CC50 at 24 h [6] | EC50 [7] | fold change (FC) (Human alphaherpesvirus 1 [8]) | EC50 (Human alphaherpesvirus 1 [9]) | selectivity ratio [10] |
| --- | --- | --- | --- | --- | --- | --- | --- | --- | --- | --- |
| Cc1cc(O)c(=O)c(O)cc1C(=O)c1ccc([N+](=O)[O-])cc1 | 0.6 | 0.03 | 3.91 |  |  |  |  |  |  |  |
| Cc1cc(O)c(=O)c(O)cc1C(=O)c1ccco1 | 0.41 | -0.1 | 4.52 |  |  |  |  |  |  |  |
| Cc1cc(O)c(=O)c(O)cc1-c1ccc(-c2ccccc2)cc1 | 4.09 | -0.05 | 4.08 | 180 nM | > 100000 nM | > 100000 nM | 210 nM |  |  |  |
| Cc1cc(O)c(=O)c(O)cc1C(=O)c1cccs1 | -0.06 | 0.16 | 0.92 |  |  |  |  |  |  |  |
| Cc1cc(O)c(=O)c(O)cc1C(=O)c1ccc2ccccc2c1 | 3.82 | 0.28 | 4.08 |  |  |  |  | >10 |  |  |
| Cc1cc(O)c(=O)c(O)cc1C(=O)c1ccccc1O | 0.86 | 0.1 | 3.86 |  |  |  |  |  |  |  |
| C=C(C)[C@@H]1CCc2c(c(C)cc(O)c(=O)c2O)C1 |  |  |  | 350 nM |  | 100000 nM | 580 nM |  |  |  |
| Cc1cc(O)c(=O)c(O)cc1C(=O)c1ccc2ccc3cccc4ccc1c2c34 | 5.01 | 0.93 | 5.76 |  |  | > 100000 nM |  |  | 60 nM | > 1800 |
| CCCCCCCCCC(=O)c1cc(O)c(=O)c(O)cc1C | 0.07 | inactive | 3.78 |  |  | > 100000 nM |  |  | 1100 nM | > 92 |
| Cc1cc(O)c(=O)c(O)cc1C(=O)c1ccc(Br)cc1 | 0.42 | 0.09 | 5.4 |  |  |  |  |  |  |  |
| Cc1cc(O)c(=O)c(O)cc1-c1ccc(-c2ccc3ccccc3c2)cc1 | 0.57 | -0.03 | 4.15 |  |  |  |  |  |  |  |
| Cc1cc(O)c(=O)c(O)cc1C(=O)c1cccc([N+](=O)[O-])c1 | 0.9 | 0.23 | 4.2 |  |  |  |  |  |  |  |
| Cc1cc(O)c(=O)c(O)cc1C(=O)c1cccc(-c2cccc3ccccc23)c1 | 3.15 | 0.15 | 4.6 |  |  |  |  |  |  |  |
| Cc1cc(O)c(=O)c(O)cc1C(=O)c1ccc(-c2ccccc2)cc1 | 4.86 | 0.43 | 4.72 | 120 nM | > 100000 nM | > 100000 nM | 81 nM |  | 170 nM | > 600 |
| Cc1cc(O)c(=O)c(O)cc1S(=O)(=O)c1ccc(-c2ccccc2)cc1 | -0.34 | inactive | 4.44 |  |  |  |  |  |  |  |
| CC(C)c1ccc(O)c(=O)c(O)c1 [BETA-THUJAPLICINOL] |  |  |  | 2000 nM |  | > 100000 nM | 1700 nM |  |  |  |

| Compound | log(activity) (Human alphaherpesvirus 1 [1]) | log(activity) (Human alphaherpesvirus 1 [2]) | log(activity) (Human alphaherpesvirus 1 [3]) | EC50 [4] | CC50 at 72 h [5] | CC50 at 24 h [6] | EC50 [7] | fold change (FC) (Human alphaherpesvirus 1 [8]) | EC50 (Human alphaherpesvirus 1 [9]) | selectivity ratio [10] |
| --- | --- | --- | --- | --- | --- | --- | --- | --- | --- | --- |
| COc1ccc(C(=O)c2cc(O)c(=O)c(O)cc2C)cc1 | 0.92 | 0.02 | 3.94 |  |  |  |  |  |  |  |
| CCCCCCCC(=O)c1cc(O)c(=O)c(O)cc1C | 0.2 | 0.13 | 4.84 |  |  | 81000 nM |  |  | 440 nM | 185 |
| Cc1cc(O)c(=O)c(O)cc1C(=O)c1ccc(-c2ccc3ccccc3c2)cc1 | 3.54 | 1.34 | 4.28 |  |  |  |  |  |  |  |
| Cc1cc(O)c(=O)c(O)cc1C(=O)c1cccc(-c2ccc3ccccc3c2)c1 | 3.03 | 0.14 | 4.11 |  |  |  |  |  |  |  |
| CCCCCCCCCCCCCC(=O)c1cc(O)c(=O)c(O)cc1C | 1.58 | 0.36 | 4.31 |  |  | 91000 nM |  | >10 | 140 nM | 631 |
| Cc1cc(O)c(=O)c(O)cc1C(=O)c1cccc(Br)c1 | 0.21 | 0.09 | 5.46 |  |  |  |  |  |  |  |
| Cc1cc(O)c(=O)c(O)cc1S(=O)(=O)c1ccccc1 | 0.81 | inactive | 0.34 |  |  |  |  |  |  |  |
| Cc1cc(O)c(=O)c(O)cc1-c1cccc(-c2cccc3ccccc23)c1 | 4 | 0.04 | 4.02 |  |  |  |  |  |  |  |
| CC(C)=CCc1ccc(=O)c(O)cc1C(C)C |  |  |  | 240 nM |  | 100000 nM | 220 nM |  |  |  |
| Cc1cc(O)c(=O)c(O)cc1C(=O)c1ccccc1 | 0.11 | inactive | 4.21 |  |  |  |  |  |  |  |
| Cc1cc(O)c(=O)c(O)cc1C(=O)C1CCCCC1 | 0.76 | 0.62 | 5.14 |  |  | 73000 nM |  |  | 630 nM | 116 |
| Cc1cc(O)c(=O)c(O)cc1-c1cccc(-c2ccccc2)c1 | 4.26 | 0.02 | 4.28 |  |  |  |  |  |  |  |
| Cc1cc(O)c(=O)c(O)cc1C(=O)C(C)C | inactive | inactive | -0.01 |  |  | 91000 nM |  |  | 26000 nM | 3.6 |
| CCCCCCCCCCCC(=O)c1cc(O)c(=O)c(O)cc1C | 3.23 | 0.29 | 4.84 |  |  | 95000 nM |  | >10 | 350 nM | 255 |
| CC(=O)c1cc(O)c(=O)c(O)cc1C | inactive | inactive | 0.48 |  |  | > 100000 nM |  |  | 1200 nM | > 83 |
| Cc1cc(O)c(=O)c(O)cc1-c1cccc(-c2ccc3ccccc3c2)c1 | 0.66 | 0.06 | 4.1 |  |  |  |  |  |  |  |
